Format in all cases: cell-based
In assay [1] the target is T1, adenosine 1 receptor (Homo sapiens, UniProt P30542).
T1 sequence (P30542 1-326): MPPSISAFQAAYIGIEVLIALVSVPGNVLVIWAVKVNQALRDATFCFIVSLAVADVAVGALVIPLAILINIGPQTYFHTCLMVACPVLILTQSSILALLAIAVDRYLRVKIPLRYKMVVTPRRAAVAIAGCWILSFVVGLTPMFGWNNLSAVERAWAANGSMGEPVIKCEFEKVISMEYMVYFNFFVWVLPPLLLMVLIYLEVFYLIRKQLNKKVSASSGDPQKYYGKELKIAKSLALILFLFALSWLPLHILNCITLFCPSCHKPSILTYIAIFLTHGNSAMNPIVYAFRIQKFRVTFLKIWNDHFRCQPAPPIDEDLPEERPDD
Put plainly: Agonist activity against adenosine 1 receptor (CHO cells, forskolin-enhanced cAMP/SPAP reporter). To be noted: CHO cells transfected with human receptor; forskolin-enhanced cAMP via SPAP; mean of all the versions tested. How it is done:
(§1) (1) Agonist activity against adenosine 2a, adenosine 1 and adenosine 3 receptor subtypes.
(§2) The effect of test compounds was determined by their effects on basal levels of cAMP (A2a) or on forskolin-enhanced cAMP (A1 and A3) as reflected by changes in levels of SPAP.

Assay [2] deals with adenosine 2a receptor (Homo sapiens, UniProt P29274). Put plainly: Agonist activity against adenosine 2a receptor (CHO cells, cAMP/SPAP reporter). To be noted: CHO cells transfected with human receptor; basal cAMP via SPAP; mean of all the versions tested. As to the method:
as §1, §2

The target in assay [3] is T2, adenosine 3 receptor (Homo sapiens, UniProt P0DMS8).
T2 sequence (P0DMS8 1-318): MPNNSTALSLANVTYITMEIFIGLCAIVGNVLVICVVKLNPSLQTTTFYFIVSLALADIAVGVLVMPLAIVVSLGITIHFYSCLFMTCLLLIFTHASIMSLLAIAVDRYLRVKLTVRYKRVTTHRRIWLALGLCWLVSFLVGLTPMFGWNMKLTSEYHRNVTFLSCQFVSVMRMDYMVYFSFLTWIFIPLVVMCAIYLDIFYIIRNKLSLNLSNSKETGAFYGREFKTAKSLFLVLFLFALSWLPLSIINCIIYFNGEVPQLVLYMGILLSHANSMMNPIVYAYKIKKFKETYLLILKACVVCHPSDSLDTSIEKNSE
Put plainly: Agonist activity against adenosine 3 receptor (CHO cells, forskolin-enhanced cAMP/SPAP reporter). As to conditions: CHO cells transfected with human receptor; forskolin-enhanced cAMP via SPAP; mean of all the versions tested. As to the method:
as §1, §2

Where a name gives a salt, the structure may show the parent alone. Some results are limits rather than exact numbers.

Sequence of adenosine 2a receptor (P29274 whole entry): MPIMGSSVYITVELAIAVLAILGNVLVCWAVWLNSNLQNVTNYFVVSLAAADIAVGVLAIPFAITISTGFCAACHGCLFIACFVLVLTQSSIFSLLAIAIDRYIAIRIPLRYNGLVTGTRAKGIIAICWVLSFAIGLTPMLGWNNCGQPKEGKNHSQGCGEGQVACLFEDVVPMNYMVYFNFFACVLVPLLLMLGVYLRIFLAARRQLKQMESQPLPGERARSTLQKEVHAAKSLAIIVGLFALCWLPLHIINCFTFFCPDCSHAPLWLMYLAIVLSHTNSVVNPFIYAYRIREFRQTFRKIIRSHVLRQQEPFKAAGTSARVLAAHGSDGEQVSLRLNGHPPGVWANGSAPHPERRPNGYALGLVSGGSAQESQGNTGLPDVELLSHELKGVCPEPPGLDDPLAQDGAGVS

In the case of `CCn1nnc([C@H]2O[C@@H](n3cnc4c(NCC(c5ccccc5)c5ccccc5)nc(NC5CCOCC5)nc43)[C@H](O)[C@@H]2O)n1.O=C(O)C(F)(F)F` [Example 113, (2R, 3R,4S, 5R)-2-[6-(2,2-Diphenyl-ethylamino)-2-(tetrahydro-pyran-4-ylamino)-purin-9-yl]-5-(2-ethyl-2H-tetrazol-5-yl)-tetrahydro-furan-3,4-diol Trifluoroacetate], the “A1 EC50 as a ratio of that of NECA” value in assay [1] is listed as 184.4. The “A2a EC50 as a ratio of that of NECA” value in assay [2] worked out at 0.72. For the same compound, in assay [3], the “A3 EC50 as a ratio of that of NECA” value was over 297.0.
In the case of `Cn1nnc(C2OC(n3cnc4c(NCc5cccc(I)c5)nc(NCCN5CCCCC5)nc43)C(O)C2O)n1` [Example 106, (2R,3R,4S,5R)-2-[6-(3-lodo-benzylamino)-2-(2-piperidin-1-yl-ethylamino)-purin-9-yl]-5-(2-methyl-2H-tetrazol-5-yl)-tetrahydro-furan-3,4-diol bis(Formate)], the “A1 EC50 as a ratio of that of NECA” value in assay [1] amounted to 100.30. Moreover, the “A2a EC50 as a ratio of that of NECA” value in assay [2] worked out at 1.12. For the same compound, the “A3 EC50 as a ratio of that of NECA” value in assay [3] is over 201.
For `CCn1nnc(C2OC(n3cnc4c(NCc5cccc(I)c5)nc(NC5CCN(Cc6ccccc6)C5)nc43)C(O)C2O)n1.O=CO.O=CO` [Example 77, (2R,3R,4S,5R)-2-[2-(1-Benzyl-pyrrolidin-3-ylamino)-6-(3-iodo-benzylamino)-purin-9-yl]-5-(2-ethyl-2H-tetrazol-5-yl)-tetrahydro-furan-3,4-diol bis(Formate)], in assay [1], the “A1 EC50 as a ratio of that of NECA” value stood at 101.30. In addition, the “A2a EC50 as a ratio of that of NECA” value in assay [2] came to 3.30. The “A3 EC50 as a ratio of that of NECA” value in assay [3] was over 200.
As for `CCn1nnc(C2OC(n3cnc4c(N)nc(NCCc5ccc(S(N)(=O)=O)cc5)nc43)C(O)C2O)n1` (stereo not drawn) [Example 17, 4-(2-{6-Amino-9-[5R-(2-ethyl-2H-tetrazol-5-yl)-3R,4S-Dihydroxy-tetrahydro-furan-2R-yl]-9H-purin-2-ylamino}-ethyl)-benzenesulfonamide Formate], the “A1 EC50 as a ratio of that of NECA” value in assay [1] was 247.6. Further, the “A2a EC50 as a ratio of that of NECA” value in assay [2] was 0.69. Moreover, the “A3 EC50 as a ratio of that of NECA” value in assay [3] is recorded as over 346.
In the case of `CC(C)n1nnc([C@H]2O[C@@H](n3cnc4c(N[C@H](CO)Cc5ccccc5)nc(NCCc5ccccn5)nc43)[C@H](O)[C@@H]2O)n1.O=CO` [Example 63, (2R,3R,4S,5R)-2-[6-(1S-Hydroxymethyl-2-phenyl-ethylamino)-2-(2-pyridin-2-yl-ethylamino)-purin-9-yl]-5-(2-isopropyl-2H-tetrazol-5-yl)-tetrahydro-furan-3,4-diol Formate], the “A1 EC50 as a ratio of that of NECA” value in assay [1] was 55.60. In addition, in assay [2], the “A2a EC50 as a ratio of that of NECA” value is listed as 5.86. For the same compound, in assay [3], the “A3 EC50 as a ratio of that of NECA” value is given as over 326.
In the case of `CC(=O)O.CCn1nnc([C@H]2O[C@@H](n3cnc4c(NCCC(C)(C)C)nc(NCCc5cn(C)cn5)nc43)[C@H](O)[C@@H]2O)n1` [Example 9, (2R,3R,4S,5R)-2-{6-(3,3-Dimethyl-butylamino)-2-[2-(1-methyl-1H-imidazol-4-yl)-ethylamino]-purin-9-yl}-5-(2-ethyl-2H-tetrazol-5-yl)-tetrahydro-furan-3,4-diol Acetate], the “A1 EC50 as a ratio of that of NECA” value in assay [1] is 377. Moreover, the “A2a EC50 as a ratio of that of NECA” value in assay [2] came out at 0.45. Also, in assay [3], the “A3 EC50 as a ratio of that of NECA” value is reported as over 42.
With `CCn1nnc(C2OC(n3cnc4c(NCCc5ccccc5)nc(NC5CCN(Cc6ccccc6)C5)nc43)C(O)C2O)n1.O=CO.O=CO` [Example 75, (2R,3R,4S,5R)-2-[2-(1-Benzyl-pyrrolidin-3-ylamino)-6-phenethylamino-purin-9-yl]-5-(2-ethyl-2H-tetrazol-5-yl)-tetrahydro-furan-3,4-diol bis(Formate)], the “A1 EC50 as a ratio of that of NECA” value in assay [1] was found to be 121.50. For the same compound, in assay [2], the “A2a EC50 as a ratio of that of NECA” value came to 1.40. Also, the “A3 EC50 as a ratio of that of NECA” value in assay [3] is over 174.
As to `Cn1cnc(CCNc2nc(NCC(c3ccccc3)c3ccccc3)c3ncn([C@@H]4O[C@H](c5nnn(C)n5)[C@@H](O)[C@H]4O)c3n2)c1.O=CO` [Example 27, (2R,3R,4S,5R)-2-{6-(2,2-Diphenyl-ethylamino)-2-[2-(1-methyl-1H-imidazol-4-yl)-ethylamino]-purin-9-yl}-5-(2-methyl-2H-tetrazol-5-yl)-tetrahydro-furan-3,4-diol Formate], in assay [1], the “A1 EC50 as a ratio of that of NECA” value is reported as 449.7. In assay [2], the “A2a EC50 as a ratio of that of NECA” value was 0.08. The “A3 EC50 as a ratio of that of NECA” value in assay [3] is over 286.
As to `CCn1nnc(C2OC(n3cnc4c(NCCc5ccccc5)nc(NC5CCNC5)nc43)C(O)C2O)n1` [Example 74, (2R,3S,4R,5R)-2-(2-Ethyl-2H-tetrazol-5-yl)-5-[6-phenethylamino-2-(pyrrolidin-3R-ylamino)-purin-9-yl]-tetrahydro-furan-3,4-diol bis(Formate)], in assay [1], the “A1 EC50 as a ratio of that of NECA” value was determined as 201.70. Besides, in assay [2], the “A2a EC50 as a ratio of that of NECA” value is 2.79. The “A3 EC50 as a ratio of that of NECA” value in assay [3] is on record as over 171.
On to `CCn1nnc([C@H]2O[C@@H](n3cnc4c(NCC(c5ccccc5)c5ccccc5)nc(N[C@H]5CC[C@H](N)CC5)nc43)[C@H](O)[C@@H]2O)n1` (relative stereo) [Example 1, rel-(2R,3R,4S,5R)-2-[2-(trans-4-Amino-cyclohexylamino)-6-(2,2-diphenylethylamino)-purin-9-yl]-5-(2-ethyl-2H-tetrazol-5-yl)-tetrahydro-furan-3,4-diol], for which the “A1 EC50 as a ratio of that of NECA” value in assay [1] turned out to be 89.3. Moreover, the “A2a EC50 as a ratio of that of NECA” value in assay [2] is on record as 0.53. The “A3 EC50 as a ratio of that of NECA” value in assay [3] was over 549.
As for `CCn1nnc([C@H]2O[C@@H](n3cnc4c(NCCc5ccccc5)nc(NCCN5CCOCC5)nc43)[C@H](O)[C@@H]2O)n1` [Example 49, (2R,3S,4R,5R)-2-(2-Ethyl-2H-tetrazol-5-yl)-5-[2-(2-morpholin-4-yl-ethylamino)-6-phenethylamino-purin-9-yl]-tetrahydro-furan-3,4-diol], the “A1 EC50 as a ratio of that of NECA” value in assay [1] was 158.70. For the same compound, the “A2a EC50 as a ratio of that of NECA” value in assay [2] came out at 3.28. Besides, the “A3 EC50 as a ratio of that of NECA” value in assay [3] is given as over 214.
The corresponding values for “(2R,3S,4R,5R)-2-(2-Ethyl-2H-tetrazol-5-yl)-5-[6-(1S-hydroxymethyl-2-ethylamino)-2-(2-morpholin-4-yl-ethylamino)-purin-9-yl]-tetrahydro-furan-3,4-diol Formate [Example 78]” are 31.00, 4.00 and over 181.
The matching figures for `Cn1nnc(C2OC(n3cnc4c(NCc5cccc(I)c5)nc(NC5CCC(N)CC5)nc43)C(O)C2O)n1.O=CO.O=CO` [Example 105, (2R,3R,4S,5R)-2-[2-(trans-4-Amino-cyclohexylamino)-6-(3-iodo-benzylamino)-purin-9-yl]-5-(2-methyl-2H-tetrazol-5-yl)-tetrahydro-furan-3,4-diol bis(Formate)]: over 2999.00, 1.07 and over 233.
As for `CCn1nnc(C2OC(n3cnc4c(NC(CO)Cc5ccccc5)nc(NCCc5cn(C)cn5)nc43)C(O)C2O)n1` [Example 8, (2R,3S,4R,5R)-2-(2-Ethyl-2H-tetrazol-5-yl)-5-{6-(1S-hydroxymethyl-2-phenyl-ethylamino)-2-[2-(1-methyl-1H-imidazol-4-yl)-ethylamino]-purin-9-yl}-tetrahydro-furan-3,4-diol Acetate], in assay [1], the “A1 EC50 as a ratio of that of NECA” value stood at 12.6. Besides, the “A2a EC50 as a ratio of that of NECA” value in assay [2] was 0.1. Besides, the “A3 EC50 as a ratio of that of NECA” value in assay [3] was over 133.
As to `Cn1nnc(C2OC(n3cnc4c(NCC(c5ccccc5)c5ccccc5)nc(NC5CCNC5)nc43)C(O)C2O)n1` [Example 94, (2R,3R,4S,5R)-2-[6-(2,2-Diphenyl-ethylamino)-2-(pyrrolidin-3R-ylamino)-purin-9-yl]-5-(2-methyl-2H-tetrazol-5-yl)-tetrahydro-furan-3,4-diol Diformate], in assay [1], the “A1 EC50 as a ratio of that of NECA” value is recorded as 385.90. In assay [2], the “A2a EC50 as a ratio of that of NECA” value is on record as 2.39. For the same compound, the “A3 EC50 as a ratio of that of NECA” value in assay [3] is over 411.
Take `CC(C)n1nnc([C@H]2O[C@@H](n3cnc4c(NCCC(C)(C)C)nc(NCCc5cn(C)cn5)nc43)[C@H](O)[C@@H]2O)n1.O=CO` [Example 56, (2R,3R,4S,5R)-2-{6-(3,3-Dimethyl-butylamino)-2-[2-(1-methyl-1H-imidazol-4-yl)-ethylamino]-purin-9-yl}-5-(2-isopropyl-2H-tetrazol-5-yl)-tetrahydro-furan-3,4-diol Formate]: the “A1 EC50 as a ratio of that of NECA” value in assay [1] worked out at 570.90. Also, in assay [2], the “A2a EC50 as a ratio of that of NECA” value stood at 4.90. In assay [3], the “A3 EC50 as a ratio of that of NECA” value is listed as over 297.

(Values after patent US6528494B2 (priority 1996, dated 2003).)
